Several values for one entry are separate records, joined by “and”; a condition that tells them apart may be missing. Equal values may be shown once. Entries after “also recorded” stand apart in the source; their conditions may differ. Where a name gives a salt, the structure may show the parent alone. Read-outs that look alike come from different tables or passages of the source.
Tests used:
[1] = tested on: EBOV (Makona variant, EBOV/Mak); format: cell-based, Ebola virus
[2] = tested on: EBOV/Mak; set-up: species or system Rhesus macaques; settings: rhesus monkey, in vivo
[3] = tested on: monocyte-derived macrophages (MDMs)
[4] = rhesus monkey, in vivo
[5] = rhesus monkey, in vivo; remark: listed apart in the source
[6] = rhesus monkey, in vivo; remark: listed apart in the source
[7] = tested on: EBOV; settings: cited from earlier work
[8] = in vivo; settings: both, rhesus monkey, po; for AUC(0-t): AUClast
[9] = in vitro; settings: African green monkey
[10] = human, in vivo, 10 mg/kg; cited from earlier work
[11] = in vitro; settings: human
[12] = in vitro; settings: human; remark: listed apart in the source
[13] = read-out: IC50 range over cell types
[14] = 40 mg/kg, elimination phase half-life (t1/2), range among individual animals

SMILES	Max effect [1]	IC50 [1, 13]	cytotoxicity [3]	Cmax (range) ([4]; 20 mg/kg)	in vitro antiviral activity against EBOV [7]	Cmax ([8]; 20 mg/kg, mean)	Cmax ([8]; 40 mg/kg, mean)	Tmax ([8]; 40 mg/kg, Tmax (range))	Tmax ([8]; 40 mg/kg, Tmax, mean)	half-life [8, 14]	CC50 [9]	Cmax [10]	in vitro antiviral activity against EBOV [1]	IC50 ([1]; read-out: IC50)	CC50 [11]	other results
CCN(CC)Cc1cc(Nc2ccnc3cc(Cl)ccc23)ccc1O [Amodiaquine dihydrochloride hydrate, amodiaquine dihydrochloride dihydrate]	100% at 30 and 100% at 40	3.2 to 27.9 µM	elevated cytotoxicity	7.8‒31.9	known to have in vitro antiviral activity against EBOV	17.1 ng/mL	53.7 ng/mL	0.5 to 8 h	5 h	3 to 28 h	40.1 µM	29.2 ± 10.9 ng/mL				RNA levels at necropsy [2]: 10^9–10^11 viral RNA copies/ml; clinical signs, febrile illness, weight loss versus control [2]: Clinical signs did not differ significantly between the groups; hematology and serum chemistry versus control [2]: followed the same trends as the control animal values; plasma viral load (RT-qPCR, plaque assay), words [2]: did not reduce plasma viral RNA copies or infectious virus titer; survival / efficacy [2]: All animals were euthanized or succumbed to disease by day 8 postexposure; also recorded: did not result in a survival benefit or decrease of disease signs; also recorded: did not result in a survival benefit or decrease of disease symptoms; also recorded: did not have a beneficial effect on survival or the symptoms of EVD; Median time to disposition ([2]; po, 20 mg/kg): 7 days and 6 days; Tmax, mean ([4]; both, po, 20 mg/kg): 3 h; ALT and AST elevation [5]: 2.6- to 6.3 fold; blood pressure [5]: lower blood pressure readings than at predose; clinical observations [5]: hypoactivity, shivering (muscle tremors) and/or diarrhea; tolerability [5]: well-tolerated; plasma levels of AQ [6]: negligible levels of AQ in all but five plasma samples; in vitro EBOV inhibition [7]: potent EBOV inhibitor; AUC(0-t) ([8]; 20 mg/kg, mean): 74 ng·h/mL; Tmax ([8]; 20 mg/kg, Tmax, mean): 5 h; AUC(0-inf) ([8]; 40 mg/kg, AUCinf, mean): 324 ng·h/mL; AUC(0-t) ([8]; 40 mg/kg, mean): 258 ng·h/mL
C[C@H]1[C@H](OC(=O)CCC(=O)O)O[C@@H]2O[C@@]3(C)CC[C@H]4[C@H](C)CC[C@@H]1[C@@]24OO3 [Artesunate, artesunate]											> 40 µM		weak or undetectable; also recorded: minimal to no in vitro antiviral activity	17.2 ± 1.2 µM	> 40 µM	activity against EBOV [7]: no activity against EBOV has been demonstrated; CC50 [12]: > 40 µM
C[C@H]1[C@@H](O)O[C@@H]2O[C@@]3(C)CC[C@H]4[C@H](C)CC[C@@H]1[C@@]24OO3 [Dihydroartimesinin, dihydroartemisinin]	64% at 40 and 49% at 40										> 40 µM		weak or undetectable; also recorded: minimal to no in vitro antiviral activity	31.5 µM and 35.2 µM	> 40 µM	
CCNCc1cc(Nc2ccnc3cc(Cl)ccc23)ccc1O [N-Desethylamodiaquine hydrochloride, N-desethylamodiaquine hydrochloride]	100% at 40 and 80% at 40	2.8 to 30 µM	elevated cytotoxicity	203‒369	known to have in vitro antiviral activity against EBOV	287 ng/mL	618 ng/mL	0.5 to 8 h	5 h	12 to 51 h	33.1 µM	268.7 ± 70.8 ng/mL				AUClast and AUCinf, fold higher for DEAQ than for AQ ([4]; both, po): 2.5- to 3 fold; t1/2 ([4]; both, po, 20 mg/kg): 15 h; plasma levels of DEAQ ([6]; Chinese origin): detectable in all treated animals from both groups 2 and 3; half-life ([8]; 20 mg/kg, t1/2, mean): 15.6 h
